According to PMC11490238 (Drug Design, Development and Therapy, 2024):
pKi: −log10 of the molar value.

Legend:
[1] = tested on: anlotinib metabolism in HLM; assay: in vitro; details: human, pH 7.4
CYP3A5 [2] = biological target: T1, CYP3A5 (Homo sapiens, UniProt P20815); assay: biochemical
HLM = details: anlotinib as substrate in HLMs
[3] = victim erlotinib, cancer subjects; cited from earlier work
in vitro = details: human, microsomes, pH 7.4
human recombinant CYP3A4 = human recombinant CYP3A4 (Homo sapiens, UniProt P08684); details: calculated from ISEF (0.49) and CLint,rhCYP
P-gp = details: previous studies and drug package inserts; cited from earlier work
CYP1A2 [4] = biological target: T2, CYP1A2 (Homo sapiens, UniProt P05177); details: calculated from ISEF (0.69) and CLint,rhCYP
T2 sequence (P05177 1-516): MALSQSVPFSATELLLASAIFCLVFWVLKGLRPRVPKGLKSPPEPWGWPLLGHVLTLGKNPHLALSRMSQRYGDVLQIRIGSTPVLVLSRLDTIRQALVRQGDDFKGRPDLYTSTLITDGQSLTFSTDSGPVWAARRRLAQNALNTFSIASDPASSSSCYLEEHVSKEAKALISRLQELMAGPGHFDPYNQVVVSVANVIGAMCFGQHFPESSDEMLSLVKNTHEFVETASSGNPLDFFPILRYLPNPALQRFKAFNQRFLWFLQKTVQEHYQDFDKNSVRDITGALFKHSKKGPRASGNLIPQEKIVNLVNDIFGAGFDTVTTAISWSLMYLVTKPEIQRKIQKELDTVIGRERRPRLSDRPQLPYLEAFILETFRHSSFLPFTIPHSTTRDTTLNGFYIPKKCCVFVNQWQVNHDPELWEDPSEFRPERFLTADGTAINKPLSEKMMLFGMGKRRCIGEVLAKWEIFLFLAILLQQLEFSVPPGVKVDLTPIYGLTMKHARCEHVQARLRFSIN

CYP3A5 [5] = biological target: T1, CYP3A5; details: calculated from ISEF (0.43) and CLint,rhCYP
[6] = Chinese cancer volunteers; cited from earlier work
CYP1A2 [7] = biological target: T2, CYP1A2; assay: biochemical

T1 sequence (P20815 whole entry): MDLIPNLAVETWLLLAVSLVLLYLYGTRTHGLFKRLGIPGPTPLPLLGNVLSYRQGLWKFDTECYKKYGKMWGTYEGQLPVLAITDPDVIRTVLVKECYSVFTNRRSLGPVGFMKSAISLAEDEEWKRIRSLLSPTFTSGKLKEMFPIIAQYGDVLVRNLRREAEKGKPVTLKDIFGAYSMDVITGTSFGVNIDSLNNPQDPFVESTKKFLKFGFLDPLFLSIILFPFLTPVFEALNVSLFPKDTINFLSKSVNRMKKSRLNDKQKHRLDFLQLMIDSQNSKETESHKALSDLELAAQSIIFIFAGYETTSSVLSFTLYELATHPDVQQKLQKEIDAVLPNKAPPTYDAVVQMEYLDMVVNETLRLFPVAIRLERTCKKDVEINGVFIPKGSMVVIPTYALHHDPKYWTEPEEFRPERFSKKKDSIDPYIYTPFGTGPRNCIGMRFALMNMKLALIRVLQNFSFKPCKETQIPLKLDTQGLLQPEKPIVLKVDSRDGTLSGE
Sequence of human recombinant CYP3A4 (P08684 whole entry): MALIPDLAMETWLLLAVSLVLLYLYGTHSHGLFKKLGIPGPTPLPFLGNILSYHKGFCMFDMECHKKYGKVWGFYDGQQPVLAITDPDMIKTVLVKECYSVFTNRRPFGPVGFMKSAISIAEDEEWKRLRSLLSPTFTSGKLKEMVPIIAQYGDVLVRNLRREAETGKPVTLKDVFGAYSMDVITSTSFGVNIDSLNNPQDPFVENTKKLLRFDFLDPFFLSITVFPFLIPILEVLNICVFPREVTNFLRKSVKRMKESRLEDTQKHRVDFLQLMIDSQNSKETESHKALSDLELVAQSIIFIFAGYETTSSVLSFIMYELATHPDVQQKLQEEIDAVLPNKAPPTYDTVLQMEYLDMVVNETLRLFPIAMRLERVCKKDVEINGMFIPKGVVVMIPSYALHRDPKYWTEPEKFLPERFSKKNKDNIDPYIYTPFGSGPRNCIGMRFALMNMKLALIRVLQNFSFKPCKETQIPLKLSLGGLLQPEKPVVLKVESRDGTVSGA

CC[C@H]1OC(=O)[C@H](C)[C@@H](O[C@H]2C[C@@](C)(OC)[C@@H](O)[C@H](C)O2)[C@H](C)[C@@H](O[C@@H]2O[C@H](C)C[C@H](N(C)C)[C@H]2O)[C@](C)(OC)C[C@@H](C)C(=O)[C@H](C)[C@@H](O)[C@]1(C)O [clarithromycin]
pKi [1]: 5.52
pKi (CYP3A5 [2]): 5.16
Inhibition mechanism (Lineweaver-Burk plots) (HLM): mixed inhibitors

CO[C@H]1/C=C/O[C@@]2(C)Oc3c(C)c(O)c4c(O)c(c(/C=N/N5CCN(C)CC5)c(O)c4c3C2=O)NC(=O)/C(C)=C\C=C\[C@H](C)[C@H](O)[C@@H](C)[C@@H](O)[C@@H](C)[C@H](OC(C)=O)[C@@H]1C [rifampicin]
AUC0–∞ of erlotinib reduced to (fold) by the labelled perpetrator [3]: 0.33 fold
Cmax of erlotinib reduced to (fold) by the labelled perpetrator [3]: 0.71 fold

COc1cc2c(Oc3ccc4[nH]c(C)cc4c3F)ccnc2cc1OCC1(N)CC1 [Anlotinib]
microsomal CLint (in vitro): 18 µL/min/mg
fm, share of anlotinib metabolized by CYP3A4 (human recombinant CYP3A4): 35%
P-gp substrate characteristics (P-gp): non-substrate
fm, share of anlotinib metabolized by CYP1A2 (CYP1A2 [4]): 35%
fm, share of anlotinib metabolized by CYP3A5 (CYP3A5 [5]): 29%
CLpo [6]: 11.014 L/h

CC(=O)N1CCN(c2ccc(OCC3COC(Cn4ccnc4)(c4ccc(Cl)cc4Cl)O3)cc2)CC1 (stereo not drawn) [ketoconazole]
Inhibition mechanism (Lineweaver-Burk plots) (HLM): mixed inhibitors

C[C@H]1COc2c(N3CCN(C)CC3)c(F)cc3c(=O)c(C(=O)O)cn1c23 [levofloxacin]
pKi [1]: 5.31
pKi (CYP1A2 [7]): 5.33
Inhibition mechanism (Lineweaver-Burk plots) (HLM): mixed inhibitors
